Target: T1, human ferroportin (Homo sapiens, UniProt Q9NP59)
T1 construct: luciferase reporter (read with the Nano-Glo Luciferase Assay System); expressed in transfected cells; host or cells: CHO cells, stably transfected, expression induced with doxycycline
T1 sequence (Q9NP59 1-571): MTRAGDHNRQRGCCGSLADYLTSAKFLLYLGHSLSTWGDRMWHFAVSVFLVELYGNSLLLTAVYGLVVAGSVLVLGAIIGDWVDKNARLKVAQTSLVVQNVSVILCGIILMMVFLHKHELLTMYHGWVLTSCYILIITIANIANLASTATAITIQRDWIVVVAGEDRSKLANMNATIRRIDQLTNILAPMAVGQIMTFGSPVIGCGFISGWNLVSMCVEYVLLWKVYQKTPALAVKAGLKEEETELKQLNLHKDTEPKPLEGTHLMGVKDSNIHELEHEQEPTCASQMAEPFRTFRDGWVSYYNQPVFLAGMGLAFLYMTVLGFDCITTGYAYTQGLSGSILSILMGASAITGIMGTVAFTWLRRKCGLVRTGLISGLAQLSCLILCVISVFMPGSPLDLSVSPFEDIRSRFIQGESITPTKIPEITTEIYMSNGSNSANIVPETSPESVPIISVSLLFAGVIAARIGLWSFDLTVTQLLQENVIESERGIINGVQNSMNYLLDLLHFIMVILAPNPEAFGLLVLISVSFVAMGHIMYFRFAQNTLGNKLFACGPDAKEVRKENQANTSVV
Experiment: Biological in-vitro ferroportin internalization assay (luciferase reporter)
Assay type: cell-based
Settings: average pEC50; stably-transfected CHO cell line expressing human ferroportin tagged to a luciferase reporter; 6 h incubation with test compound
In short: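 Stably transfected CHO cells expressing luciferase-tagged human ferroportin, plated 24 h with ferric ammonium citrate and induced with doxycycline for 24 h. Compounds incubated 6 h, then luciferase activity measured by Nano-Glo; average pEC50 reported.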

Row | Compound | pEC50
1 | CN(CC(=O)Nc1cnn(C)c1)c1nc(-c2cc(OCC3CC3)ccn2)nc2c1CCC2 [Compound 215, 2-({2-[4-(cyclopropylmethoxy)pyridin-2-yl]-5H,6H,7H-cyclopenta[d]pyrimidin-4-yl}(methyl)amino)-N-(1-methyl-1H-pyrazol-4-yl)acetamide] | 7.5
2 | CN(CC(=O)Nc1ccc(F)nc1)c1nc(-c2cc(OC(F)F)ccn2)nc2c1CCC2 [Compound 216, 2-({2-[4-(difluoromethoxy)pyridin-2-yl]-5H,6H,7H-cyclopenta[d]pyrimidin-4-yl}(methyl)amino)-N-(6-fluoropyridin-3-yl)acetamide] | 6.6
3 | COc1ccc(NC(=O)CN(C)c2nc(-c3cc(OC(F)F)ccn3)nc3c2CCC3)nc1 [Compound 217, 2-({2-[4-(difluoromethoxy)pyridin-2-yl]-5H,6H,7H-cyclopenta[d]pyrimidin-4-yl}(methyl)amino)-N-(5-methoxypyridin-2-yl)acetamide] | 6.9
4 | CN(CC(=O)Nc1cnn(C)c1)c1nc(-c2cc3ccccc3cn2)nc2c1CCC2 [Compound 218, 2-{[2-(isoquinolin-3-yl)-5H,6H,7H-cyclopenta[d]pyrimidin-4-yl](methyl)amino}-N-(1-methyl-1H-pyrazol-4-yl)acetamide] | 7
5 | COc1ccc(NC(=O)CN(C)c2nc(-c3cc4cn[nH]c4cn3)nc3c2CCC3)cn1 [Compound 219, N-(6-methoxypyridin-3-yl)-2-[methyl(2-{1H-pyrazolo[3,4-c]pyridin-5-yl}-5H,6H,7H-cyclopenta[d]pyrimidin-4-yl)amino]acetamide] | 7.1
6 | CN(CC(=O)Nc1cnn(C)c1)c1nc(-c2cn(C)cn2)nc2c1CCC2 [Compound 220, N-(1-methyl-1H-pyrazol-4-yl)-2-{methyl[2-(1-methyl-1H-imidazol-4-yl)-5H,6H,7H-cyclopenta[d]pyrimidin-4-yl]amino}acetamide] | 7
7 | CN(CC(=O)Nc1ccc(F)nc1)c1nc(-c2cc3ccccc3cn2)nc2c1CCC2 [Compound 221, N-(6-fluoropyridin-3-yl)-2-{[2-(isoquinolin-3-yl)-5H,6H,7H-cyclopenta[d]pyrimidin-4-yl](methyl)amino}acetamide] | 7
8 | Cc1ccc(NC(=O)CN(C)c2nc(-c3cc4ccccc4cn3)nc3c2CCC3)cn1 [Compound 222, 2-{[2-(isoquinolin-3-yl)-5H,6H,7H-cyclopenta[d]pyrimidin-4-yl](methyl)amino}-N-(6-methylpyridin-3-yl)acetamide] | 7.2
9 | CCOc1ccnc(-c2nc3c(c(N(C)CC(=O)Nc4ccc(OC)nc4)n2)CCC3)c1 [Compound 223, 2-{[2-(4-ethoxypyridin-2-yl)-5H,6H,7H-cyclopenta[d]pyrimidin-4-yl](methyl)amino}-N-(6-methoxypyridin-3-yl)acetamide] | 7.8
10 | COc1ccc(NC(=O)CN(C)c2nc(-c3cc(OCC4CC4)ccn3)nc3c2CCC3)cn1 [Compound 224, 2-({2-[4-(cyclopropylmethoxy)pyridin-2-yl]-5H,6H,7H-cyclopenta[d]pyrimidin-4-yl}(methyl)amino)-N-(6-methoxypyridin-3-yl)acetamide] | 7.9
11 | COc1ccc(NC(=O)CN(C)c2nc(-c3cc(OC(F)F)ccn3)nc3c2CCC3)cn1 [Compound 225, 2-({2-[4-(difluoromethoxy)pyridin-2-yl]-5H,6H,7H-cyclopenta[d]pyrimidin-4-yl}(methyl)amino)-N-(6-methoxypyridin-3-yl)acetamide] | 6.8
12 | CN(CC(=O)NC(C)(C)C)c1nc(-c2cc3c(cn2)OCO3)nc2c1CCC2 [Compound 226, N-tert-butyl-2-[(2-{2H-[1,3]dioxolo[4,5-c]pyridin-6-yl}-5H,6H,7H-cyclopenta[d]pyrimidin-4-yl)(methyl)amino]acetamide] | 7.1
13 | COc1ccc(NC(=O)CN(C)c2nc(-c3cc4ccccc4cn3)nc3c2CCC3)cn1 [Compound 227, 2-{[2-(isoquinolin-3-yl)-5H,6H,7H-cyclopenta[d]pyrimidin-4-yl](methyl)amino}-N-(6-methoxypyridin-3-yl)acetamide] | 7.2
14 | CN(CC(=O)Nc1cccnc1)c1nc(-c2cc3ccccc3cn2)nc2c1CCC2 [Compound 228] | 7.1

Further lines, results first:

Row | pEC50 | Compound
15 | 6.6 | COc1ccc(NC(=O)CN(C)c2nc(-c3cc(OC(F)(F)F)ccn3)nc3c2CCC3)cn1 [Compound 230, N-(6-methoxypyridin-3-yl)-2-[methyl({2-[4-(trifluoromethoxy)pyridin-2-yl]-5H,6H,7H-cyclopenta[d]pyrimidin-4-yl})amino]acetamide]
16 | 6.2 | CN(CC(=O)Nc1cnn(C)c1)c1nc(-c2cc(OC(F)(F)F)ccn2)nc2c1CCC2 [Compound 231, 2-[methyl({2-[4-(trifluoromethoxy)pyridin-2-yl]-5H,6H,7H-cyclopenta[d]pyrimidin-4-yl})amino]-N-(1-methyl-1H-pyrazol-4-yl)acetamide]
17 | 7 | CN(CC(=O)Nc1ccn(C)n1)c1nc(-c2cc3cn[nH]c3cn2)nc2c1CCC2 [Compound 232, 2-[methyl(2-{1H-pyrazolo[3,4-c]pyridin-5-yl}-5H,6H,7H-cyclopenta[d]pyrimidin-4-yl)amino]-N-(1-methyl-1H-pyrazol-3-yl)acetamide]
18 | 7.4 | COc1ccc(NC(=O)CN(C)c2nc(-c3cc4ccccc4cn3)nc3c2CCC3)nc1 [Compound 233, 2-{[2-(isoquinolin-3-yl)-5H,6H,7H-cyclopenta[d]pyrimidin-4-yl](methyl)amino}-N-(5-methoxypyridin-2-yl)acetamide]
19 | 6.4 | CN(CC(=O)Nc1ccc(OC(F)(F)F)nc1)c1nc(-c2cc3ccccc3cn2)nc2c1CCC2 [Compound 234, 2-{[2-(isoquinolin-3-yl)-5H,6H,7H-cyclopenta[d]pyrimidin-4-yl](methyl)amino}-N-[6-(trifluoromethoxy)pyridin-3-yl]acetamide]
20 | 7.5 | Cc1cncc(NC(=O)CN(C)c2nc(-c3cc4ccccc4cn3)nc3c2CCC3)c1 [Compound 235, 2-{[2-(isoquinolin-3-yl)-5H,6H,7H-cyclopenta[d]pyrimidin-4-yl](methyl)amino}-N-(5-methylpyridin-3-yl)acetamide]
21 | 7.4 | CN(CC(=O)Nc1cn(C)cn1)c1nc(-c2cc3ccccc3cn2)nc2c1CCC2 [Compound 236, 2-{[2-(isoquinolin-3-yl)-5H,6H,7H-cyclopenta[d]pyrimidin-4-yl](methyl)amino}-N-(1-methyl-1H-imidazol-4-yl)acetamide]
22 | 7.1 | CN(CC(=O)Nc1ccn(C)n1)c1nc(-c2cc3ccccc3cn2)nc2c1CCC2 [Compound 237, 2-{[2-(isoquinolin-3-yl)-5H,6H,7H-cyclopenta[d]pyrimidin-4-yl](methyl)amino}-N-(1-methyl-1H-pyrazol-3-yl)acetamide]
23 | 7.5 | COCCOc1ccnc(-c2nc3c(c(N(C)CC(=O)Nc4ccc(OC)nc4)n2)CCC3)c1 [Compound 238, 2-({2-[4-(2-methoxyethoxy)pyridin-2-yl]-5H,6H,7H-cyclopenta[d]pyrimidin-4-yl}(methyl)amino)-N-(6-methoxypyridin-3-yl)acetamide]
24 | 7.8 | COCCOc1ccnc(-c2nc3c(c(N(C)CC(=O)NC(C)(C)C)n2)CCC3)c1 [Compound 239, N-tert-butyl-2-({2-[4-(2-methoxyethoxy)pyridin-2-yl]-5H,6H,7H-cyclopenta[d]pyrimidin-4-yl}(methyl)amino)acetamide]
